# EP1171440B1, “SUBSTITUTED-3-CYANO-[1.7],[1.5], AND [1.8]-NAPHTHYRIDINE INHIBITORS OF TYROSINE KINASES” (Wyeth Holdings Corporation, priority 1999, dated 2000)
# Several values for one entry are separate records, joined by “and”; a condition that tells them apart may be missing. Equal values may be shown once. Read-outs that look alike come from different tables or passages of the source.
# How the values were obtained:
# [1] = molecular target: T1, EGF-R Kinase (recombinant enzyme) (Homo sapiens, UniProt P00533); experiment: Inhibition of Epidermal Growth Factor Receptor Kinase (EGF-R) using recombinant enzyme, RR-SRC peptide phosphorylation with 33P-ATP; type: biochemical; settings: for inhibition at 0.5 µM: 0.5 µM concentration of test compound, read-out: % Inhibition @ 0.5
# T1 construct: containing the EGFR cDNA encoding amino acids 645 - 1186 preceded by Met-Ala-(His)6; made in house; host or cells: Sf9 insect cells infected with recombinant baculovirus vHcEGFR52
# T1 sequence (P00533 669-1210): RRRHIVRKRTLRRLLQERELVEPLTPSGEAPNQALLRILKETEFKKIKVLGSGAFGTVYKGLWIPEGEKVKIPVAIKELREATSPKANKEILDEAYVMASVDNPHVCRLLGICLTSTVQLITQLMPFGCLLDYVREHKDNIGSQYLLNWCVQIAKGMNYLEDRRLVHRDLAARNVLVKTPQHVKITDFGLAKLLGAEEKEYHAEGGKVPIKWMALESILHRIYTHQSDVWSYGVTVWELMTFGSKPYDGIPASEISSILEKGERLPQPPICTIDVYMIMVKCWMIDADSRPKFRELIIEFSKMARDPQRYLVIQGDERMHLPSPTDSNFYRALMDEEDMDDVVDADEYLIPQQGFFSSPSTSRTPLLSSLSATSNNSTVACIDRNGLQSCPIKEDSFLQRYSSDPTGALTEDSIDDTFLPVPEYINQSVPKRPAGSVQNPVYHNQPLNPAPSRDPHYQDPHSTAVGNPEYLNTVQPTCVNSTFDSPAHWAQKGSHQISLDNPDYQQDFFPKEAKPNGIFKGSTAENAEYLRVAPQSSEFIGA
# Protocol: Representative test compounds were evaluated for their ability to inhibit the phosphorylation of the tyrosine residue of a peptide substrate catalyzed by the enzyme epidermal growth factor receptor kinase. […] The enzyme used in this assay is the His-tagged cytoplasmic domain of EGFR. A recombinant baculovirus (vHcEGFR52) was constructed containing the EGFR cDNA encoding amino acids 645 - 1186 preceded by Met-Ala-(His)6 . Sf9 cells in 100 mm plates were infected at an moi of 10 pfu/cell and cells were harvested 48 h post infection. A cytoplasmic extract was prepared using 1% Triton X-100 and applied to Ni-NTA column. After washing the column with 20 mM imidazole, HcEGFR was eluted with 250 mM imidazole (in 50 mM Na2HPO4, pH 8.0, 300 mM NaCl). Fractions collected were dialyzed against 10 mM HEPES, pH 7.0, 50 mM NaCl, 10% glycerol, 1ug/mL antipain and leupeptin and 0.1 mM Pefabloc SC. The protein was frozen in dry ice/methanol and stored -70° C.
# Test compounds were made into 10 mg/mL stock solutions in 100% dimethylsulfoxide (DMSO). Prior to experiment, stock solutions were diluted to 500 uM with 100% DMSO and then serially diluted to the desired concentration with HEPES buffer (30 mM HEPES pH 7.4).
# For the enzyme reaction, 10 uL of each inhibitor (at various concentrations) were added to each well of a 96-well plate. To this was added 3 uL of enzyme (1:10 dilution in 10mM HEPES, pH 7.4 for final conc. of 1:120). This was allowed to sit for 10 min on ice and was followed by the addition of 5 ul peptide (80 uM final conc.), 10ul of 4X Buffer (Table A), 0.25 uL ^33P-ATP and 12 uL H2O. The reaction was allowed to run for 90 min at room temperature and was followed by spotting the entire volume on to precut P81 filter papers. The filter discs were washed 2X with 0.5% phosphoric acid and radioactivity was measured using a liquid scintillation counter. Table A
# The IC50 is the concentration of test compound needed to reduce the total amount of phosphorylated substrate by 50%. The % inhibition of the test compound was determined for at least three different concentrations and the IC50 value was evaluated from the dose response curve. […] CPM(control) is in units of counts per minute and was a number expressing the amount of radiolabeled ATP (γ-^33P) incorporated into the RR-SRC peptide substrate by the enzyme after 90 minutes at room temperature in the absence of test compound as measured by liquid scintillation counting. The CPM values were corrected for the background counts produced by ATP in the absence of the enzymatic reaction. Where it was possible to determine an IC50 value, this is reported in TABLE 1 otherwise the % inhibition at 0.5 µM concentration of test compound is shown in TABLE 1.
# [2] = molecular target: Mitogen Activated Protein Kinase (Mek-Erk) (Homo sapiens, UniProt P28482+Q02750); experiment: Mitogen Activated Protein Kinase (MAPK) coupled MEK 1 / ERK2 assay; type: biochemical; settings: separate entries = evaluated more than one time
# Chain of Mitogen Activated Protein Kinase (Mek-Erk) (P28482 2-360): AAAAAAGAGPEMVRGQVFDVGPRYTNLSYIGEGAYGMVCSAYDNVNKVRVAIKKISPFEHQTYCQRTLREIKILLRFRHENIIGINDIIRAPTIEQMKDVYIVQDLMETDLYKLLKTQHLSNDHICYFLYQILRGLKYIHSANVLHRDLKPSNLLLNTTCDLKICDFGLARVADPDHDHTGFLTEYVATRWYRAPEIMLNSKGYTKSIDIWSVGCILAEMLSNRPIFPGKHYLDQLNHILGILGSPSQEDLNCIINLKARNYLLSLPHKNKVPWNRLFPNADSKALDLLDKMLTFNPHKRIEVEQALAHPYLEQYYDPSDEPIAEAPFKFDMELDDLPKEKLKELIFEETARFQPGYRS
# Chain of Mitogen Activated Protein Kinase (Mek-Erk) (Q02750 whole entry): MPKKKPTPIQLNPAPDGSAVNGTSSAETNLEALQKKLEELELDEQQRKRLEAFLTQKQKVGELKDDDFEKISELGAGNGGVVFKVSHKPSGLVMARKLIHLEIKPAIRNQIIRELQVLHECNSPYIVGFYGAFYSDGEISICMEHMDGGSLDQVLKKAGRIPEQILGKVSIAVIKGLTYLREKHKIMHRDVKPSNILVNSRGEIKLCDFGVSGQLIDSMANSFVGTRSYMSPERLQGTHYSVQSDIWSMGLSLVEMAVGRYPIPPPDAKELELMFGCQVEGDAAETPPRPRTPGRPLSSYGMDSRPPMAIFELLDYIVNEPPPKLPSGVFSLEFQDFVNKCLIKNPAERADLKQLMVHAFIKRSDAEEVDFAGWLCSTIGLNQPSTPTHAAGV
# Protocol: To evaluate inhibitors of the MAP (mitogen activated protein) kinase a two component coupled standard pharmacological test procedure, which measures phosphorylation of a serine/threonine residue in an appropriate sequence in the substrate in the presence and absence of a putative inhibitor, was used. Recombinant human MEK 1 (MAPKK) was first used to activate recombinant human ERK2 (MAPK) and the activated MAPK (ERK) was incubated with substrate (MBP peptide or MYC peptide) in the presence of ATP, Mg^+2 and radiolabeled ^33P ATP. The phosphorylated peptide was captured on a P 81 phosphocellulose filter (paper filter or embedded in microtiter plate) washed and counted by scintillation methods.
# The peptide substrates used in the assay are MBP, peptide substrate ([…]), or synthetic Myc substrate, ([…]•5 TFA. The recombinant enzymes used were prepared as GST fusion proteins of human ERK 2 and human MEK 1. Inhibitor samples were prepared as 10X stocks in 10% DMSO and an appropriate aliquot was used to deliver either 10 ug/ml for a single point screening dose or 100, 10, 1, and 0.1 uM final concentration for a dose response curve. Final DMSO concentrations were less than or equal to 1%.
# The reaction was run as follows in 50 mM Tris kinase buffer, pH 7.4 in a reaction volume of 50 ul. The appropriate volume of kinase buffer and inhibitor sample was added to the tube. Appropriate dilution of enzyme was delivered to give 2-5 ug recombinant MAPK (Erk ) per tube. The inhibitor was incubated with MAPK (Erk) for 30 min at 0 deg. C. Recombinant Mek (MAPKK) ( 0.5-2.5 ug) or fully activated Mek (0.05-0.1 units) was added to activate the Erk and incubated for 30 min at 30° C. Then substrate and gamma ^33P ATP was were added to give a final concentration of 0.5- 1 mM MBPP or 250-500 uM Myc; 0.2-0.5 uCi gamma ^33P ATP/tube; 50 µM ATP final concentration. Samples were incubated at 30°C for 30 minutes and the reaction was stopped by adding 25 µl of ice cold 10 %TCA. After samples were chilled on ice for 30 min, 20 µl of sample was transferred onto P 81 phosphocellulose filter paper or appropriate MTP with embedded P 81 filter. Filter papers or MTP were washed 2 times with a large volume of 1% acetic acid, then 2 times with water. The filters or MTP were briefly air dried before addition of scintillant and samples were counted in the appropriate scintillation counter set up for reading ^33P isotope. Samples included a positive control (activated enzyme plus substrate); a no enzyme control; a no substrate control; samples with different concentrations of putative inhibitor; and samples with reference inhibitors (other active compounds or non-specific inhibitors such as staurosporine or K252 B).
# The raw data was captured as cpm. Sample replicates were averaged and corrected for background count. Mean cpm data was tabulated by group and % inhibition by a test compound was calculated as (corrected cpm control- corrected. cpm sample/control) X 100 = % inhibition. If several concentrations of inhibitor were tested, IC50 values (the concentration which gives 50% inhibition) were determined graphically from the dose response curve for % inhibition or by an appropriate computer program. The results obtained for representative compounds of this invention are listed in TABLE 3 where there may be separate entries for the same compound; this is an indication that the compound was evaluated more than one time.
# A2780DDP = experiment: Inhibition of Cancer Cell Growth as Measured by Cell Number (Sulforhodamine B); type: cell-based, Human; settings: 48 hours exposure
# Protocol: (§1) After 48 hours exposure to test compounds, cells were fixed with trichloroacetic acid, and stained with Sulforhodamine B. After washing with trichloroacetic acid, bound dye was solubilized in 10 mM Tris base and optical density was determined using a plate reader. Under conditions of the assay the optical density is proportional to the number of cells in the well. […] The test procedure is described in details by Philip Skehan et. al, J.Natl. Canc. […] The Her2Neu cell line is a 3T3 line that has bbeen transfected with Her2 receptor kinase.
# A2780S = experiment: as above; type: cell-based, Human; settings: 48 hours exposure
# Protocol: as §1
# A431 = experiment: as above; type: cell-based, Human; settings: 48 hours exposure
# Protocol: as §1
# MDA435 = experiment: as above; type: cell-based, Human; settings: 48 hours exposure
# Protocol: as §1
# SKBR3 = experiment: as above; type: cell-based, Human
# Protocol: as §1
# SW620 = experiment: as above; type: cell-based, Human
# Protocol: as §1
# [3] = recombinant His-tagged cytoplasmic domain of EGFR, RR-SRC peptide, 90 min at room temperature, read-out: IC50
# [4] = Homo sapiens, 48 h, read-out: IC50
# [5] = Homo sapiens, A-431, 48 h, read-out: IC50
# [6] = Homo sapiens, MDA435, 48 h, read-out: IC50
# [7] = Homo sapiens, SK-BR-3, 48 hours exposure, read-out: IC50
# [8] = Homo sapiens, SW-620, 48 hours exposure, read-out: IC50
smiles,measurement,setting,value
"N#Cc1cnc2ncc([N+](=O)[O-])cc2c1Nc1cccc(Br)c1 [Example 21, 4-(3-Bromo-phenylamino)-6-nitro-[1.8]naphthyridine-3-carbonitrile]",IC50,[1]; [3],0.003 µM
"N#Cc1cnc2ncc(N)cc2c1Nc1cccc(Br)c1 [Example 22, 6-Amino-4-(3-bromo-phenylamino)-[1.8]naphthyridine-3-carbonitrile]",IC50,[1]; [3],0.05 µM
same,IC50,[2],> 100 µM
"C=CC(=O)Nc1cnc2ncc(C#N)c(Nc3cccc(Br)c3)c2c1 [Example 23, N-[5-(3-Bromo-phenylamino)-6-cyano-[1.8]naphthyridin-3-yl]-acrylamide]",IC50,[1],0.007 µM
same,IC50,[2]; read-out: IC50,> 100 µM and 100 µM
"N#Cc1cnc2ncc([N+](=O)[O-])cc2c1Nc1ccc(F)c(Cl)c1 [Example 25, 4-(3-Chloro-4-fluoro-phenylamino)-6-nitro-[1.8]naphthyridine-3-carbonitrile]",IC50,[1]; [3],0.1 µM
"N#Cc1cnc2ncc(N)cc2c1Nc1ccc(F)c(Cl)c1 [Example 26, 6-Amino-4-(3-chloro-4-fluoro-phenylamino)-[1.8]naphthyridine-3-carbonitrile]",IC50,[2]; read-out: IC50,> 100 µM
"CC#CC(=O)Nc1cnc2ncc(C#N)c(Nc3ccc(F)c(Cl)c3)c2c1 [Example 27, But-2-ynoic acid [5-(3-chloro-4-fluoro-phenylamino)-6-cyano-[1.8]-naphthyridin-3-yl]-amide]",IC50,[2],> 100 µM
"N#Cc1cnc2ncc(NC(=O)CCl)cc2c1Nc1cccc(Br)c1 [Example 28, N-[5-(3-Bromo-phenylamino)-6-cyano-[1.8]naphthyridin-3-yl]-2-chloro-acetamide]",IC50,[2]; read-out: IC50,6 µM
"CN(C)CC=CC(=O)Nc1cnc2ncc(C#N)c(Nc3cccc(Br)c3)c2c1 [Example 30, 4-Dimethylamino-but-2-enoic acid [5-(3-bromo-phenylamino)-6-cyano-[1.8]naphthyridin-3-yl]-amide]",inhibition at 0.5 µM,[1],47%
same,IC50,[1]; [3],0.8 µM
same,IC50,[2]; read-out: IC50,50 µM
same,IC50,A2780DDP; [4],4 µg/mL
same,IC50,A2780S; [4],1.77 µg/mL
same,IC50,A431; [5],2.76 µg/mL
same,IC50,MDA435; [6],> 5 µg/mL
same,IC50,SKBR3; [7],4.83 µg/mL
same,IC50,SW620; [8],> 5 µg/mL
"CCOc1ccc2ncc(C#N)c(Nc3cccc(Br)c3)c2n1 [Example 35, 4-(3-Bromo-phenylamino)-6-ethoxy-[1.5]naphthyridine-3-carbonitrile]",inhibition at 0.5 µM,[1],9%
same,IC50,[1]; [3],> 10 µM
same,IC50,[2],> 100 µM
"N#Cc1cnc2cccnc2c1Nc1cccc(Br)c1 [Example 37, 4-(3-Bromophenylamino)-[1.5]naphthyridine-3-carbonitrile]",IC50,[2]; read-out: IC50,> 100 µM
"N#Cc1cnc2ccc(N)nc2c1Nc1cccc(Br)c1 [Example 49, 6-Amino-4-(3-bromo-phenylamino)-[1.5]naphthyridine-3-carbonitrile]",IC50,[2],25 µM
"N#Cc1cnc2cnc(F)cc2c1Nc1cccc(Br)c1 [Example 57, 4-(3-Bromo-phenylamino)-6-fluoro-[1.7]naphthyridine-3-carbonitrile]",IC50,[1]; [3],0.008 µM
same,IC50,[2],> 100 µM
same,IC50,A2780DDP; [4],> 5 µg/mL
same,IC50,A2780S; [4],3.33 µg/mL
same,IC50,A431; [5],3.92 µg/mL
same,IC50,MDA435; [6],> 5 µg/mL
same,IC50,SKBR3; [7],> 5 µg/mL
same,IC50,SW620; [8],> 5 µg/mL
"COc1ccc(CNc2cc3c(Nc4cccc(Br)c4)c(C#N)cnc3cn2)cc1 [Example 58, 4-(3-Bromo-phenylamino)-6-(4-methoxy-benzylamino)-[1.7]naphthyridine-3-carbonitrile]",IC50,[1]; [3],> 0.1 µM
same,IC50,[2],> 100 µM
same,IC50,A2780DDP; [4],1.8 µg/mL
same,IC50,A2780S; [4],1 µg/mL
same,IC50,A431; [5],0.4 µg/mL
same,IC50,MDA435; [6],2.4 µg/mL
same,IC50,SKBR3; [7],2.9 µg/mL
same,IC50,SW620; [8],4.1 µg/mL
"N#Cc1cnc2cnc(N)cc2c1Nc1cccc(Br)c1 [Example 59, 6-Amino-4-(3-bromo-phenylamino)-[1.7]naphthyridine-3-carbonitrile]",IC50,[1]; [3],0.0007 µM
same,IC50,A2780DDP; [4],3.1 µg/mL
same,IC50,A2780S; [4],3.5 µg/mL
same,IC50,A431; [5],0.4 µg/mL
same,IC50,MDA435; [6],> 5 µg/mL
same,IC50,SKBR3; [7],4.1 µg/mL
same,IC50,SW620; [8],> 5 µg/mL
"C[Si](C)(C)C#Cc1cc2c(Nc3cccc(Br)c3)c(C#N)cnc2cn1 [Example 85, 4-(3-Bromo-phenylamino)-6-trimethylsilanylethynyl-[1.7]naphthyridine-3-carbonitrile]",IC50,A2780DDP,2.969 µg/mL
same,IC50,A2780S,2.344 µg/mL
same,IC50,A431,3.056 µg/mL
same,IC50,MDA435,4.203 µg/mL
same,IC50,SKBR3; 48 hours exposure,3.591 µg/mL
same,IC50,SW620; 48 hours exposure,4.724 µg/mL
